Laboratory results from patent US20020142993A1, “Pharmaceutically acceptable salts of bicyclic compounds” (DR. REDDY'S LABORATORIES LTD., priority 2000, published 2002).
Counter-ions that a name gives are not always drawn.

Legend:
[1] = test system: Swiss albino mice; experiment: Plasma triglyceride and total cholesterol lowering activity in Swiss albino mice and guinea pigs; type: in vivo, mouse; details: dose 3 mg/kg, oral, 6 days
Method: c) Plasma Triglyceride and Total Cholesterol Lowering Activity in Swiss Albino Mice and Guinea Pigs
Male Swiss albino mice (SAM) and male Guinea pigs were obtained from NIN and housed in DRF animal house. All these animals were maintained under 12 hour light and dark cycle at 25±1° C. Animals were given standard laboratory chow (NIN, Hyderabad, India) and water, ad libitum. SAM of 20-25 g body weight range and Guinea pigs of 500-700 g body weight range were used (Oliver, P., Plancke, M. O., Marzin, D., Clavey, V., Sauzieres, J and Fruchart, J. C. Effects of fenofibrate, gemfibrozil and nicotinic acid on plasma lipoprotein levels in normal and hyperlipidemic mice. Atherosclerosis. 1988. 70: 107-114).
The test compounds were administered orally to Swiss albino mice at 0.3 to 30 mg/kg/day dose for 6 days. Control mice were treated with vehicle (0.25% Carboxymethylcellulose; dose 10 ml/kg). The test compounds were administered orally to Guinea pigs at 0.3 to 30 mg/kg/day dose for 6 days. Control animals were treated with vehicle (0.25% Carboxymethylcellulose; dose 5 ml/kg).
The blood samples were collected in fed state 1 hour after drug administration on 0 and 6 day of treatment. The blood was collected from the retro-orbital sinus through heparinised capillary in EDTA containing tubes. After centrifugation, plasma sample was separated for triglyceride and total cholesterol (Wieland, O. Methods of Enzymatic analysis. Bergermeyer, H. O., Ed., 1963. 211-214; Trinder, P. Ann. Clin. Biochem. 1969. 6: 24-27). Measurement of plasma triglyceride, total cholesterol and HDL were done using commercial kits (Dr. Reddy's Diagnostic Division, Hyderabad, India).
(§1) 1. Percent reduction in Blood sugar/triglycerides/total cholesterol were calculated according to the formula: [formula]

[2] = target: T1, hPPARα (Homo sapiens, UniProt Q07869); experiment: Determination of hPPARα activity (GAL4-LBD luciferase reporter in HEK-293 cells); type: cell-based; details: 50 μM compound, transfected HEK-293 cells
T1 construct: expressed in transfected cells; host or cells: HEK-293
T1 sequence (Q07869 239-466 limits assumed): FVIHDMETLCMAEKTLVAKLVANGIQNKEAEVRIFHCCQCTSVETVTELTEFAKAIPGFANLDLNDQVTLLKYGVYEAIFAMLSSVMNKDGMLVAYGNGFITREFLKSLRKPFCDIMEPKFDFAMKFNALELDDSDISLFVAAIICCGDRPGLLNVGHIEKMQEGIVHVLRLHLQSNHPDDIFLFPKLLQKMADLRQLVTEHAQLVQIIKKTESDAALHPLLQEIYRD
Method: a) Determination of hPPARα Activity
Ligand binding domain of hPPARα was fused to DNA binding domain of Yeast transcription factor GAL4 in eucaryotic expression vector. Using superfect (Qiagen, Germany) as transfecting reagent HEK-293 cells were transfected with this plasmid and a reporter plasmid harboring the luciferase gene driven by a GAL4 specific promoter. Compound was added at different concentrations after 42 hrs of transfection and incubated overnight. Luciferase activity as a function of compound binding/activation capacity of PPARα was measured using Packard Luclite kit (Packard, USA) in Top Count (Ivan Sadowski, Brendan Bell, Peter Broag and Melvyn Hollis. Gene. 1992. 118: 137 -141; Superfect Transfection Reagent Handbook. February 1997, Qiagen, Germany).

[3] = Single dose oral pharmacokinetic studies; type: in vivo; details: male Wistar rats, suspension in 0.25% sodium CMC
Method: Single Dose Oral Pharmacokinetic Studies
Male Wistar rats (220-250 gm) were used in the experiments. The animals were maintained under standard laboratory conditions and had free access to feed and water ad libitum. Before experimentation animals were fasted overnight (˜15 h) during which they had free access to water ad libitum.
An amount equivalent to 30 mg of drug was weighed accurately and transferred into a clean mortar and triturated to obtain a fine powder. To this 0.5 ml of 0.25% sodium carboxy methyl cellulose (sodium CMC) was added to obtain a paste. To the obtained paste remaining 2.5 ml of sodium CMC was added to make up the volume to 3 ml. Based on the animal weight appropriate volume (body weight×3) of the prepared suspension was administered through oral gavage.
After dosing, at designated time points (0.5, 1, 2, 3, 5, 8, 12 and 24 h) 200 μl of blood was collected from retro orbital plexus into 0.5 ml eppendorff tubes containing EDTA (10 μl of 200 mg/ml solution in Milli Q water). Blood was centrifuged at 12,800 rpm for 5 min and obtained plasma and stored at −20° C. till further analysis.
100 μl plasma was transferred into a clean and dry centrifuge tube. To this internal standard (10 μl of 100 μg/ml) was added and extracted with 2 ml of extraction recovery solvent. The contents were vortexed for 2 min, followed by centrifugation for 10 min at 2800 rpm. Clear organic layer (2×0.75 ml) was separated and dried under nitrogen gas at 50° C. The residue was reconstituted with 150 μl of mobile phase and vortexed for 20 sec, from this 50 μl was injected onto HPLC column.
Pharmacokinetic parameters were calculated by non-compartmental model analysis. The peak plasma concentration (Cmax) and the corresponding time (Tmax) were directly obtained from the raw data. The area under the plasma concentration versus time curve up to the last quantifiable time point, AUC(0-t) was obtained by the linear and log-linear trapezoidal summation. The AUC(0-t) extrapolated to infinity (i.e., AUC(0-∞)) by adding the quotient of Clast/Kel, where Clast represents the last measurable time concentration and Kel represents the apparent terminal rate constant. Kel was calculated by the linear regression of the log-transformed concentrations of the drug in the terminal phase. The half-life of the terminal elimination phase was obtained using the relationship

[4] = target: T2, hPPARγ1 (Homo sapiens, UniProt P37231); experiment: Determination of hPPARγ activity (GAL4-LBD luciferase reporter in HEK-293 cells); type: cell-based; details: 1 μM compound, transfected HEK-293 cells
T2 construct: expressed in transfected cells; host or cells: HEK-293
T2 sequence (P37231 238-503 limits assumed): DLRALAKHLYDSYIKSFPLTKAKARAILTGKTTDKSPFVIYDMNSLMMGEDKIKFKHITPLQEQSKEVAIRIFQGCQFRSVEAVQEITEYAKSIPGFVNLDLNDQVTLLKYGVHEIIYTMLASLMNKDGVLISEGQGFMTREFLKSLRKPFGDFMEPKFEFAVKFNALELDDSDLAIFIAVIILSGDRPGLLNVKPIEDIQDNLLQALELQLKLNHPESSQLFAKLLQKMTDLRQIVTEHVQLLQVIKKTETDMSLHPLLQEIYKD
Method: b) Determination of hPPARγ Activity
Ligand binding domain of hPPARγ1 was fused to DNA binding domain of Yeast transcription factor GAL4 in eucaryotic expression vector. Using lipofectamine (Gibco BRL, USA) as transfecting reagent HEK-293 cells were transfected with this plasmid and a reporter plasmid harboring the luciferase gene driven by a GAL4 specific promoter. Compound was added at 1 μM concentration after 48 hrs of transfection and incubated overnight. Luciferase activity as a function of drug binding/activation capacity of PPARγ1 was measured using Packard Luclite kit (Packard, USA) in Packard Top Count (Ivan Sadowski, Brendan Bell, Peter Broag and Melvyn Hollis. Gene. 1992. 118: 137-141; Guide to Eukaryotic Transfections with Cationic Lipid Reagents. Life Technologies, GIBCO BRL, USA).

[5] = test system: C57BL/KsJ-db/db mice; experiment: Blood sugar and triglyceride lowering in db/db mice; type: in vivo, mouse; details: dose 0.03 mg/kg, oral gavage daily for 6 days
From the text: Mutation in colonies of laboratory animals and different sensitivities to dietary regimens have made the development of animal models with non-insulin dependent diabetes and hyperlipidemia associated with obesity and insulin resistance possible. Genetic models such as db/db and ob/ob (Diabetes, (1982)31(1): 1-6) mice and zucker fa/fa rats have been developed by the various laboratories for understanding the pathophysiology of disease and testing the efficacy of new antidiabetic compounds (Diabetes, (1983)32: 830-838; Annu. Rep. Sankyo Res. Lab. (1994).46:1-57). […]
The random blood sugar and triglyceride levels were measured by collecting blood (100 μl) through orbital sinus, using heparinised capillary in tubes containing EDTA which was centrifuged to obtain plasma. The plasma glucose and triglyceride levels were measured spectrometrically, by glucose oxidase and glycerol 3 PO4 oxidase/peroxidase enzyme (Dr. Reddy's Lab. Diagnostic Division Kits, Hyderabad, India) methods respectively.
The blood sugar and triglycerides lowering activities of the test compound was calculated according to the formula.
as §1

Row | Compound | Triglyceride Lowering (%) [1] [%] | melting point [°C] | PPARα (luciferase activity) [2] | PPARγ (luciferase activity) [4] | further results
1 | CCO[C@@H](Cc1ccc(OCCN2CCSc3ccccc32)cc1)C(=O)O [Example 1] | 66 | – | – | – | –
2 | CCO[C@@H](Cc1ccc(OCCN2CCSc3ccccc32)cc1)C(=O)O (as salt: salt) [Example 1] | – | 126 to 128 | – | – | –
3 | CCO[C@@H](Cc1ccc(OCCN2CCSc3ccccc32)cc1)C(=O)O (as salt: salt) [Example 5, -Lysine salt of (−)-3-[4-[2-(3,4-dihydro-2H-1,4-benzothiazin-4-yl)ethoxy]phenyl]-2-ethoxy propanoic acid] | – | 142 to 144 | – | – | –
4 | CCO[C@@H](Cc1ccc(OCCN2CCSc3ccccc32)cc1)C(=O)O [Example 2, Metformin salt of (−)-3-[4-[2-(3,4-dihydro-2H-1,4-benzothiazin-4-yl)ethoxy]phenyl]-2-ethoxy propanoic acid] | 55 | – | 3.0 | 9.8 | Ke1 [3]: 0.17 ± 0.03 h⁻¹; AUC(0-inf) ([3]; rat, plasma, 30 mg/kg): 320 ± 36.2 µg·h/mL; AUC(0-t) ([3]; rat, plasma, 30 mg/kg): 315 ± 34.7 µg·h/mL; Cmax ([3]; rat, plasma, 30 mg/kg): 77.2 ± 24.1 µg/mL; Tmax ([3]; rat, plasma, 30 mg/kg): 0.63 ± 0.25 h; half-life ([3]; rat, plasma, 30 mg/kg): 4.25 ± 0.86 h; Reduction in Blood Glucose Level (%) [5]: 56%; Triglyceride Lowering (%) [5]: 59%
5 | CCO[C@@H](Cc1ccc(OCCN2CCSc3ccccc32)cc1)C(=O)O [Example 6, Amino guanidine hydrogen carbonate salt of (−)-3-[4-[2-(3,4-dihydro-2H-1,4-benzothiazin-4-yl)ethoxy]phenyl]-2-ethoxy propanoic acid] | – | – | 4.7 | 21 | –
6 | CCOC(Cc1ccc(OCCN2CCSc3ccccc32)cc1)C(=O)O (stereo in doubt) [Example 4, (R)-(+)-Methyl benzylamine salt of (−)-3-[4-[2-(3,4-dihydro-2H-1,4-benzothiazin-4-yl)ethoxy]phenyl]-2-ethoxy propanoic acid] | 55 | – | – | – | –
7 | CCO[C@@H](Cc1ccc(OCCN2CCSc3ccccc32)cc1)C(=O)O (as salt: salt) [Example 3, Dicyclohexylamine salt of (−)-3-[4-[2-(3,4-dihydro-2H-1,4-benzothiazin-4-yl)ethoxy]phenyl]-2-ethoxy propanoic acid] | – | 110 | – | – | –
8 | CCO[C@@H](Cc1ccc(OCCN2CCSc3ccccc32)cc1)C(=O)O [Example 5, -Lysine salt of (−)-3-[4-[2-(3,4-dihydro-2H-1,4-benzothiazin-4-yl)ethoxy]phenyl]-2-ethoxy propanoic acid] | 46 | – | 3.5 | 7.6 | –
9 | CCO[C@@H](Cc1ccc(OCCN2CCSc3ccccc32)cc1)C(=O)O (as salt: salt) [Example 2, Metformin salt of (−)-3-[4-[2-(3,4-dihydro-2H-1,4-benzothiazin-4-yl)ethoxy]phenyl]-2-ethoxy propanoic acid] | – | 155 to 158 | – | – | –
10 | CCO[C@@H](Cc1ccc(OCCN2CCSc3ccccc32)cc1)C(=O)O [Example 3, Dicyclohexylamine salt of (−)-3-[4-[2-(3,4-dihydro-2H-1,4-benzothiazin-4-yl)ethoxy]phenyl]-2-ethoxy propanoic acid] | – | – | 5.2 | 19 | –
